The record followed here is patent US11702411B2, “Pyridine, pyrazine, and triazine compounds as allosteric SHP2 inhibitors” (Revolution Medicines, Inc., priority 2017, dated 2023).

Some results are limits rather than exact numbers.

SHP2, sequence (Q06124 whole entry): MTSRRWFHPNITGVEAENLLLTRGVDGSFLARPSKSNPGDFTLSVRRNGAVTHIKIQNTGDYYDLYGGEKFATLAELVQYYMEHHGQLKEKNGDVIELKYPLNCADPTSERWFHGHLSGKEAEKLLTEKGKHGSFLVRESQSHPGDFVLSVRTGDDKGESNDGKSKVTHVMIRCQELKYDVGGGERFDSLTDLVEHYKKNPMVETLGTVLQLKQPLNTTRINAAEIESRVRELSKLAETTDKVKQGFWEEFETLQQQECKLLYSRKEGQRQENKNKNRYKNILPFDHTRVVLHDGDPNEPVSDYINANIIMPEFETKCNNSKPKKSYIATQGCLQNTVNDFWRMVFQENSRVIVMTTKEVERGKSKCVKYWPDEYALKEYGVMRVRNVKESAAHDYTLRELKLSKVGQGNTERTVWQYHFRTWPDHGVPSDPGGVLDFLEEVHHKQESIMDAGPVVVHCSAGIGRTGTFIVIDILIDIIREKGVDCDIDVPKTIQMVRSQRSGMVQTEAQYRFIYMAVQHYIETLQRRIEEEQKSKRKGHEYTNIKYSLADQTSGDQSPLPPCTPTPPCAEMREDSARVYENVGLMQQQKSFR

The first test has as its target SHP2 (Homo sapiens (Human), UniProt Q06124). Briefly: SHP2 allosteric inhibition assay (DiFMUP prompt fluorescence, activating peptide). The format is biochemical. As to conditions: 0.2 nM SHP2, 0.5 μM activating peptide, DiFMUP substrate; read-out: SHP2 Allosteric IC50. From the text: Without wishing to be bound by theory, SHP is allosterically activated through binding of bis-tyrosyl-phosphorylated peptides to its Src Homology 2 (SH2) domains. The latter activation step leads to the release of the auto-inhibitory interface of SHP2, which in turn renders the SHP2 protein tyrosine phosphatase (PTP) active and available for substrate recognition and reaction catalysis. The catalytic activity of SHP2 was monitored using the surrogate substrate DiFMUP in a prompt fluorescence assay format.
The phosphatase reactions were performed at room temperature in 96-well black polystyrene plate, flat bottom, non-binding surface (Corning, Cat #3650) using a final reaction volume of 100 μL and the following assay buffer conditions: 50 mM HEPES, pH 7.2, 100 mM NaCl, 0.5 mM EDTA, 0.05% P-20, 1 mM DTT.
The inhibition of SHP2 by compounds of the present disclosure (concentrations varying from 0.00005-10 μM) was monitored using an assay in which 0.2 nM of SHP2 was incubated with 0.5 μM of Activating Peptide 1 (sequence: H2N-LN(pY)IDLDLV(dPEG8)LST(pY)ASINFQK-amide) or Activating Peptide 2 (sequence: H2N-LN(pY)AQLWHA(dPEG8)LTI(pY)ATIRRF-amide). After 30-60-minutes incubation at 25° C., the surrogate substrate DiFMUP (Invitrogen, Cat #D6567) was added to the reaction and activity was determined by a kinetic read using a microplate reader (Envision, Perkin-Elmer or Spectramax M5, Molecular Devices). The excitation and emission wavelengths were 340 nm and 450 nm, respectively. Initial rates were determined from a linear fit of the data, and the inhibitor dose response curves were analyzed using normalized IC50 regression curve fitting with control based normalization.
Broadly, the IC50 is the concentration that gives 50% inhibition. Turning to `N[C@@H]1CCCC12CCN(c1ncc(-c3ccnc(Cl)c3Cl)nc1CO)CC2` [Compound 1, (3-[(1R)-1-amino-8-azaspiro[4.5]decan-8-yl]-6-(2,3-dichloropyridin-4-yl)pyrazin-2-yl)methanol], the IC50 fell in the range of 50 to 500 nM.

As for `N[C@@H]1CCCC12CCN(c1ncc(-c3cccc(Cl)c3Cl)nc1CO)CC2` [Compound 2, (3-[(1R)-1-amino-8-azaspiro[4.5]decan-8-yl]-6-(2,3-dichlorophenyl)pyrazin-2-yl)methanol], the concentration for half-maximal inhibition (IC50) was in the range of 50 to 500 nM.

`CC1(N)CCN(c2ncc(-c3cccc(Cl)c3Cl)nc2CO)CC1` [Compound 3, [3-(4-amino-4-methylpiperidin-1-yl)-6-(2,3-dichlorophenyl)pyrazin-2-yl]methanol]: the half-maximal inhibitory concentration (IC50) is 50 to 500 nM. On the same count and under the same terms, then `CC1(N)CCN(c2ncc(Sc3ccnc(N)c3Cl)nc2CO)CC1` [Compound 4, (6-((2-amino-3-chloropyridin-4-yl)thio)-3-(4-amino-4-methylpiperidin-1-yl)pyrazin-2-yl)methanol], with no more than 50 nM.

`C[C@@H]1OCC2(CCN(c3ccc(Sc4ccnc(N)c4Cl)nc3CO)CC2)[C@@H]1N` [Compound 5, [6-[(2-amino-3-chloro-4-pyridyl)sulfanyl]-3-[(3S,4S)-4-amino-3-methyl-2-oxa-8-azaspiro[4.5]decan-8-yl]-2-pyridyl]methanol]: the concentration for half-maximal inhibition (IC50) was no more than 50 nM. The same measure, in the same setting: as for `C[C@@H]1OCC2(CCN(c3ncc(-c4c(Cl)c(Cl)cc5c4OCO5)nc3CO)CC2)[C@@H]1N` [Compound 6, {3-[(3S,4S)-4-amino-3-methyl-2-oxa-8-azaspiro[4.5]decan-8-yl]-6-(5,6-dichloro-2H-1,3-benzodioxol-4-yl)pyrazin-2-yl}methanol], the figure is 50 to 500 nM. Regarding `COc1ccc(Cl)c(Cl)c1-c1cnc(N2CCC3(CC2)CO[C@@H](C)[C@H]3N)c(CO)n1` [Compound 7, {3-[(3S,4S)-4-amino-3-methyl-2-oxa-8-azaspiro[4.5]decan-8-yl]-6-(2,3-dichloro-6-methoxyphenyl)pyrazin-2-yl}methanol], the concentration for half-maximal inhibition (IC50) is greater than 500 nM. `C[C@@H]1OCC2(CCN(c3ncc(-c4c(O)ccc(Cl)c4Cl)nc3CO)CC2)[C@@H]1N` [Compound 8, 2-{5-[(3S,4S)-4-amino-3-methyl-2-oxa-8-azaspiro[4.5]decan-8-yl]-6-(hydroxymethyl)pyrazin-2-yl}-3,4-dichlorophenol]: the half-maximal inhibitory concentration (IC50) was 50 to 500 nM. On the same count and under the same terms, then `C[C@@H]1OCC2(CCN(c3ncc(-c4ccc5nccnc5c4Cl)nc3CO)CC2)[C@@H]1N` [Compound 9, {3-[(3S,4S)-4-amino-3-methyl-2-oxa-8-azaspiro[4.5]decan-8-yl]-6-(5-chloroquinoxalin-6-yl)pyrazin-2-yl}methanol], with 50 to 500 nM; and `C[C@@H]1OCC2(CCN(c3ncc(-c4ccc5c(c4Cl)OCC5)nc3CO)CC2)[C@@H]1N` [Compound 10, {3-[(3S,4S)-4-amino-3-methyl-2-oxa-8-azaspiro[4.5]decan-8-yl]-6-(7-chloro-2,3-dihydro-1-benzofuran-6-yl)pyrazin-2-yl}methanol], with 50 to 500 nM.

As for `C[C@@H]1OCC2(CCN(c3ncc(-c4cccc5cc[nH]c45)nc3CO)CC2)[C@@H]1N` [Compound 11, {3-[(3S,4S)-4-amino-3-methyl-2-oxa-8-azaspiro[4.5]decan-8-yl]-6-(1H-indol-7-yl)pyrazin-2-yl}methanol], the concentration for half-maximal inhibition (IC50) is no more than 50 nM. Still for that read-out and setting: as for `C[C@@H]1OCC2(CCN(c3ncc(-c4ccc5nccnc5c4)nc3CO)CC2)[C@@H]1N` [Compound 12, {3-[(3S,4S)-4-amino-3-methyl-2-oxa-8-azaspiro[4.5]decan-8-yl]-6-(quinoxalin-6-yl)pyrazin-2-yl}methanol], the figure is greater than 500 nM. The same measure, in the same setting: then `C[C@@H]1OCC2(CCN(c3ncc(-c4cc(Cl)c5cn[nH]c5c4)nc3CO)CC2)[C@@H]1N` [Compound 13, {3-[(3S,4S)-4-amino-3-methyl-2-oxa-8-azaspiro[4.5]decan-8-yl]-6-(4-chloro-2H-indazol-6-yl)pyrazin-2-yl}methanol], with 50 to 500 nM; and `C[C@@H]1OCC2(CCN(c3ncc(-c4cc5[nH]ncc5cc4Cl)nc3CO)CC2)[C@@H]1N` [Compound 14, {3-[(3S,4S)-4-amino-3-methyl-2-oxa-8-azaspiro[4.5]decan-8-yl]-6-(5-chloro-2H-indazol-6-yl)pyrazin-2-yl}methanol], with 50 to 500 nM. For the molecule `C[C@@H]1OCC2(CCN(c3ncc(-c4cc5ccccc5n4C)nc3CO)CC2)[C@@H]1N` [Compound 15, {3-[(3S,4S)-4-amino-3-methyl-2-oxa-8-azaspiro[4.5]decan-8-yl]-6-(1-methyl-1H-indol-2-yl)pyrazin-2-yl}methanol], the half-inhibitory concentration (IC50) is no more than 50 nM.

`C[C@@H]1OCC2(CCN(c3ncc(-c4ccc5c(c4Cl)OCCC5)nc3CO)CC2)[C@@H]1N` [Compound 16, {3-[(3S,4S)-4-amino-3-methyl-2-oxa-8-azaspiro[4.5]decan-8-yl]-6-(8-chloro-3,4-dihydro-2H-1-benzopyran-7-yl)pyrazin-2-yl}methanol]: the IC50 was in the range of 50 to 500 nM. Still for that read-out and setting: as for `COc1ccc(F)c(-c2cnc(N3CCC4(CC3)CO[C@@H](C)[C@H]4N)c(CO)n2)c1Cl` [Compound 17, {3-[(3S,4S)-4-amino-3-methyl-2-oxa-8-azaspiro[4.5]decan-8-yl]-6-(2-chloro-6-fluoro-3-methoxyphenyl)pyrazin-2-yl}methanol], the figure is greater than 500 nM. The same measure, in the same setting: then `C[C@@H]1OCC2(CCN(c3ncc(-c4c(Cl)ccc(Cl)c4Cl)nc3CO)CC2)[C@@H]1N` [Compound 18, {3-[(3S,4S)-4-amino-3-methyl-2-oxa-8-azaspiro[4.5]decan-8-yl]-6-(2,3,6-trichlorophenyl)pyrazin-2-yl}methanol], with 50 to 500 nM. Still for that read-out and setting: as for `C[C@@H]1OCC2(CCN(c3ncc(-c4ccc5[nH]ncc5c4)nc3CO)CC2)[C@@H]1N` [Compound 20, {3-[(3S,4S)-4-amino-3-methyl-2-oxa-8-azaspiro[4.5]decan-8-yl]-6-(2H-indazol-5-yl)pyrazin-2-yl}methanol], the figure is 50 to 500 nM; as for `C[C@@H]1OCC2(CCN(c3ncc(-c4cccc(Cl)c4Cl)nc3CO)CC2)[C@@H]1N` [Compound 21, {3-[(3S,4S)-4-amino-3-methyl-2-oxa-8-azaspiro[4.5]decan-8-yl]-6-(2,3-dichlorophenyl)pyrazin-2-yl}methanol], no more than 50 nM. As for `C[C@@H]1OCC2(CCN(c3ncc(Sc4cccc(C#N)c4Cl)nc3CO)CC2)[C@@H]1N` [Compound 22, 3-({5-[(3S,4S)-4-amino-3-methyl-2-oxa-8-azaspiro[4.5]decan-8-yl]-6-(hydroxymethyl)pyrazin-2-yl}sulfanyl)-2-chlorobenzonitrile], the IC50 was no more than 50 nM.

In the case of `C[C@@H]1OCC2(CCN(c3ncc(Sc4ccnc(C#N)c4Cl)nc3CO)CC2)[C@@H]1N` [Compound 23, 4-({5-[(3S,4S)-4-amino-3-methyl-2-oxa-8-azaspiro[4.5]decan-8-yl]-6-(hydroxymethyl)pyrazin-2-yl}sulfanyl)-3-chloropyridine-2-carbonitrile], the IC50 is no more than 50 nM. As for `COc1nccc(Sc2cnc(N3CCC4(CC3)CO[C@@H](C)[C@H]4N)c(CO)n2)c1Cl` [Compound 24, {3-[(3S,4S)-4-amino-3-methyl-2-oxa-8-azaspiro[4.5]decan-8-yl]-6-[(3-chloro-2-methoxypyridin-4-yl)sulfanyl]pyrazin-2-yl}methanol], the IC50 was no more than 50 nM.

`COc1cccc(Sc2cnc(N3CCC4(CC3)CO[C@@H](C)[C@H]4N)c(CO)n2)c1Cl` [Compound 25, {3-[(3S,4S)-4-amino-3-methyl-2-oxa-8-azaspiro[4.5]decan-8-yl]-6-[(2-chloro-3-methoxyphenyl)sulfanyl]pyrazin-2-yl}methanol]: the IC50 was no more than 50 nM.

On to `C[C@@H]1OCC2(CCN(c3ncc(Sc4ccnc(N5CC(S(C)(=O)=O)C5)c4Cl)nc3CO)CC2)[C@@H]1N` [Compound 26, {3-[(3S,4S)-4-amino-3-methyl-2-oxa-8-azaspiro[4.5]decan-8-yl]-6-{[3-chloro-2-(3-methanesulfonylazetidin-1-yl)pyridin-4-yl]sulfanyl}pyrazin-2-yl}methanol], for which the half-inhibitory concentration (IC50) is no more than 50 nM. The same measure, in the same setting: then `C[C@@H]1OCC2(CCN(c3ncc(Sc4ccnc(NC5CCOCC5)c4Cl)nc3CO)CC2)[C@@H]1N` [Compound 27, {3-[(3S,4S)-4-amino-3-methyl-2-oxa-8-azaspiro[4.5]decan-8-yl]-6-({3-chloro-2-[(oxan-4-yl)amino]pyridin-4-yl}sulfanyl)pyrazin-2-yl}methanol], with no more than 50 nM.

With `C[C@@H]1OCC2(CCN(c3ncc(Sc4cccc(C(=O)N(C)C)c4Cl)nc3CO)CC2)[C@@H]1N` [Compound 28, 3-({5-[(3S,4S)-4-amino-3-methyl-2-oxa-8-azaspiro[4.5]decan-8-yl]-6-(hydroxymethyl)pyrazin-2-yl}sulfanyl)-2-chloro-N,N-dimethylbenzamide], the half-inhibitory concentration (IC50) was no more than 50 nM.

Staying with this test, now noted: 0.2 nM SHP2, 0.5 μM activating peptide, DiFMUP substrate; read-out: SHP2 IC50.
As to `N[C@@H]1CCCC12CCN(c1ncc(-c3ccnc(Cl)c3Cl)nc1CO)CC2` [Compound 1, (3-[(1R)-1-amino-8-azaspiro[4.5]decan-8-yl]-6-(2,3-dichloropyridin-4-yl)pyrazin-2-yl)methanol], the IC50 came to 145 nM. With `N[C@@H]1CCCC12CCN(c1ncc(-c3cccc(Cl)c3Cl)nc1CO)CC2` [Compound 2, (3-[(1R)-1-amino-8-azaspiro[4.5]decan-8-yl]-6-(2,3-dichlorophenyl)pyrazin-2-yl)methanol], the IC50 worked out at 88 nM.

Consider `CC1(N)CCN(c2ncc(-c3cccc(Cl)c3Cl)nc2CO)CC1` [Compound 3, [3-(4-amino-4-methylpiperidin-1-yl)-6-(2,3-dichlorophenyl)pyrazin-2-yl]methanol], for which the IC50 was 461 nM.
